The values that follow come from ChEMBL document CHEMBL3603834, “Syntheses and Biological Evaluation of Costunolide, Parthenolide, and Their Fluorinated Analogues” (J Med Chem, 2015).

Broadly, the IC50 is the point on the concentration scale where inhibition reaches its midpoint. The half-life is how long it takes for the measured level to halve.

Data set [1] relates to HL-60. The experiment in a line: Cytotoxicity against human HL60 cells. It is filed as functional, cell-based.
A short description of data set [2]: Cytotoxicity against human KG1a cells. Format: functional, cell-based. The note with it: KG-1a.
A further data set relates to C6. The experiment in a line: Cytotoxicity against rat C6 cells. Format: functional, cell-based.
Data set [3] concerns HL-60. The experiment in a line: Cytotoxicity against human HL60/A cells. Format: functional, cell-based.
Data set [4] in a line: Chemical stability of the compound in p-toluenesulfonic acid in dichloromethane after 48 hrs. Format: physicochemical.
The nature of data set [5]: Half life in rat plasma. It is filed as ADME, cell-free.
Data set [6] is described as follows: Half life in human liver microsomes by HPLC-MS/MS analysis in presence of NADPH. It is filed as ADME. (In general: Microsomes from liver hold many membrane-bound enzymes, among them those of drug oxidation.)
Data set [7] can be described thus: Metabolic stability in rat plasma assessed as compound degradation after 420 mins. Format: ADME, cell-free. The conditions noted are these: read-out: Drug degradation.

The structures appear in SMILES notation.

As for `C=C1C(=O)O[C@H]2[C@H]1CC/C(CF)=C\CC[C@@]1(C)O[C@@H]21`, the IC50 in the data set with HL-60 [1] is 2000 nM; in data set [2], 2900 nM; in the data set with C6 it was 2800 nM; in the data set with HL-60 [3], 1500 nM. Further, the Stability entry in data set [4] was “Stable”.
`C=C1CC[C@H]2C(=C)C(=O)O[C@@H]2[C@@H]2O[C@]2(C)CCC1F` (some centres undefined): the IC50 in the data set on HL-60 [1] is 11900 nM; in data set [2], 8600 nM; in the data set on C6, 11300 nM; with HL-60 [3] it was 9200 nM. In addition, the Stability entry in data set [4] was “Stable”.
For `C=C1C(=O)O[C@H]2[C@H]1CC/C(C(F)F)=C\CC[C@@]1(C)O[C@@H]21`, in that order: 2000 nM, 1800 nM, 3400 nM, 2100 nM and “Stable”.
With `C=C1C(=O)O[C@H]2[C@H]1CC/C(C(F)(F)F)=C\CC[C@@]1(C)O[C@@H]21`, the IC50 is 2100 nM in the data set on HL-60 [1], 2000 nM in data set [2], 3000 nM in the data set on C6 and 2000 nM in the data set with HL-60 [3]. Besides, the half-life in data set [5] stood at 0.338 h; in data set [6] it was 1.43 h. Further, in data set [4], the Stability result is listed as “Stable”.
`C=C1C(=O)O[C@@H]2/C=C(\C)CC/C=C(/C(F)(F)F)CC[C@@H]12`: the IC50 in the data set on HL-60 [1] turned out to be 5000 nM; in data set [2], 5100 nM; with C6 it was 5400 nM; with HL-60 [3] it was 4900 nM.
As to `C=C1C(=O)O[C@@H]2C3O[C@]3(C)CC/C=C(\C)CC[C@@H]12` (some centres undefined), the IC50 came out at 2000 nM in the data set with HL-60 [1], 2300 nM in data set [2], 2500 nM with C6 and 2000 nM with HL-60 [3]. The half-life is 0.278 h in data set [5] and 1.39 h in data set [6]. For the same molecule, the Stability result in data set [4] is reported as “Unstable”.
As for `C/C1=C\CC[C@@]2(C)O[C@H]2[C@H]2OC(=O)[C@@H](C)[C@@H]2CC1`, the metabolised at 7 h in data set [7] was found to be 20%. This molecule showed a half-life in data set [5] above 7 h.
As to `C=C1C(=O)O[C@@H]2/C=C(\C)CC/C=C(\C)CC[C@@H]12` [COSTUNOLIDE], the IC50 with HL-60 [1] was determined as 2100 nM; in data set [2], 4100 nM; in the data set on C6, 4100 nM; in the data set with HL-60 [3] it was 5900 nM.
